Patent US4166859A, “2-Bromo-6-fluoro-N-(2-imidazolidinylidene)-benzamine and salts thereof and the use to treat hypertension” (Boehringer Ingelheim GmbH, priority 1976, dated 1979)
Structures can show the parent of a compound that is named as a salt.

Assays:
[1] = Stomach juice secretion inhibition, method of Shay et al; details: rat, in vivo; dose reducing volume of stomach juice secreted by 50% and total acidity by 50%; measure of dryness of the mouth; read-out: Stomach juice secretion inhibiting ED50 in rats
Description: The effect on the stomach juice secretion was determined on rats by the standard test method of Shay et al, Gastroenterology 5, 43 (1943), and the ED50 was calculated for each test compound, that is, the dose which reduces the volume of stomach juice secreted over a given amount of time by 50%, and at the same time produces a 50% reduction in the total acidity of the secreted stomach juice volume.

blood pressure = assay: Hypotensive activity (blood pressure reduction) in rabbits under urethane anesthesia, i.v.; assay type: in vivo; details: for ED (20 mm Hg): Oryctolagus cuniculus, iv, urthane anesthesia, dose producing lasting reduction of 20 mm Hg of blood pressure, arteria carotis, read-out: Hypotensive ED20 in rabbits
Description: The hypotensive activity of the test compounds was determined on a statistically significant number of rabbits under urthane anesthesia. The blood pressure of the test animals was continuously measured in the arteria carotis by means of a mercury manometer before and after the i.v. administration of the test compound at varying dosage levels. The ED20 was determined, that is, the dose which produced a lasting reduction of 20 mm Hg of the blood pressure.

pKa-value = assay type: physicochemical
[2] = Hygroscopicity of acid addition salts; assay type: physicochemical

Fc1cccc(Br)c1NC1=NCCN1 [2-bromo-6-fluoro-N-(2-imidazolidinylidene)-benzamine monohydrochloride]
ED50 [1]: 0.1 mg/kg
ED (20 mm Hg) (blood pressure): 0.01 mg/kg
pKa (pKa-value): 8.2

Fc1cccc(Br)c1N=C1NCCN1 [Benzoate]
hygroscopicity [2]: slightly hygroscopic

Fc1cccc(Br)c1N=C1NCCN1 [Citrate]
hygroscopicity [2]: hygroscopic

Clc1cccc(Cl)c1NC1=NCCN1 [Clonidine . HCl, 2-(2,6-dichloroanilino)-2-imidazoline, reference compound]
ED50 [1]: 0.04 mg/kg
ED (20 mm Hg) (blood pressure): 0.01 mg/kg

Fc1cccc(Br)c1N=C1NCCN1 [Hydrobromide]
hygroscopicity [2]: hygroscopic

Fc1cccc(Br)c1N=C1NCCN1 [Methanesulfonate]
hygroscopicity [2]: hygroscopic

Fc1cccc(Br)c1N=C1NCCN1 [Nitrate]
hygroscopicity [2]: slightly hygroscopic

Fc1cccc(Br)c1N=C1NCCN1 [Oxalate]
hygroscopicity [2]: hygroscopic

Fc1cccc(Br)c1N=C1NCCN1 [Tartrate]
hygroscopicity [2]: hygroscopic

Fc1cccc(Br)c1N=C1NCCN1 [Tosylate]
hygroscopicity [2]: hygroscopic

Clc1cccc(Cl)c1NC1=NCCN1 [clonidine, 2-(2,6-dichloroanilino)-2-imidazoline]
antihypertensive efficacy relative to the invention compound (blood pressure; comparison with 2-bromo-6-fluoro-N-(2-imidazolidinylidene)-benzamine): equal antihypertensive efficacy
